Measured values taken from US20090221567A1, “MUSCARINIC RECEPTOR AGONISTS, COMPOSITIONS, METHODS OF TREATMENT THEREOF, AND PROCESSES FOR PREPARATION THEREOF 177” (ASTRAZENECA AB, priority 2008, published 2009).

Key:
[1] = target: T1, human M2 receptor (human Muscarinic receptor subtype 2) (Homo sapiens, UniProt P08172); assay: hM2 receptor GTPγS binding; assay type: biochemical; conditions: CHO membranes, [35S]GTPγS binding
T1 construct: purchased Perkin-Elmer RBHM2M; host or cells: membranes from CHO cells expressing the cloned receptor
T1 sequence (P08172 1-466): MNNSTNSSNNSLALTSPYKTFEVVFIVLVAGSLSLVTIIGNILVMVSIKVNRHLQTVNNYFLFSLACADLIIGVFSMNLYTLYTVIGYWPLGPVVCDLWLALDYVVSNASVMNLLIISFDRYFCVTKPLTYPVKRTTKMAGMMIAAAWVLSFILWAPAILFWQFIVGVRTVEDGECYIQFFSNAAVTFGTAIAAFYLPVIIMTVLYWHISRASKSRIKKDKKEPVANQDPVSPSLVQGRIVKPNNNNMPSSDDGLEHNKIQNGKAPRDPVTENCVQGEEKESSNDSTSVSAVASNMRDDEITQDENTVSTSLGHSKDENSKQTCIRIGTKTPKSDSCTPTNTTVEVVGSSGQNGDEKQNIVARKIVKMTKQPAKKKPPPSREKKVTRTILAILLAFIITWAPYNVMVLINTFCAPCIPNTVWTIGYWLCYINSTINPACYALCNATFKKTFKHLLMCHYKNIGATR
Procedure: Membranes produced from Chinese hamster ovary cells (CHO) expressing the cloned human M2 receptor (human Muscarinic receptor subtype 2, gene bank access NM_000739), are obtained from Perkin-Elmer (RBHM2M). The membranes are thawed at 37° C., passed 3 times through a 23-gauge blunt-end needle, diluted in the GTPγS binding buffer (50 mM Hepes, 20 mM NaOH, 100 mM NaCl, 1 mM EDTA, 5 mM MgCl2, pH 7.4, 100 μM DTT). The EC50, IC50 and Emax of the compounds of the invention are evaluated from 10-point dose-response curves (three fold concentration range) done in 60 μl in 384-well non-specific binding surface plate (Corning). Ten microliters from the dose-response curves plate (5× concentration) are transferred to another 384 well plate containing 25 μl of the following: 5 μg of hM2 membranes, 500 μg of Flashblue beads (Perkin-Elmer) and GDP 25 μM. An additional 15 μl containing 3.3× (60,000 dpm) of GTPγ^35S (0.4 nM final) are added to the wells resulting in a total well volume of 50 μl. Basal and maximal stimulated [^35S]GTPγS binding are determined in absence and presence of 30 μM final of acetylcholine agonist. The membranes/beads mix are pre-incubated for 15 minutes at room temperature with 25 μM GDP prior to distribution in plates (12.5 μM final). The reversal of acetylcholine-induced stimulation (2 μM final) of [^35S]GTPγS binding is used to assay the antagonist properties (IC50) of the compounds. The plates are incubated for 60 minutes at room temperature then centrifuged at 400 rpm for 5 minutes. The radioactivity (cpm) is counted in a Trilux (Perkin-Elmer).
Values of EC50, IC50 and Emax are obtained using sigmoidal fits of a non-linear curve-fitting program (XLfit version 4.2.2 Excel add-in version 4.2.2 build 18 math 1Q version 2.1.2 build 18) of percent stimulated [^35S]GTPγS binding vs. log(molar ligand). All pEC50 and pIC50 values are reported as arithmetic means±standard error of mean of ‘n’ independent experiments.

[2] = target: T2, hM1 (human Muscarinic receptor subtype 1) (Homo sapiens, UniProt P11229); assay: Human M1 calcium mobilization FLIPR assay; assay type: cell-based; conditions: receptor expressed in CHO cells, intracellular Ca2+ release; read-out: hM1 EC50
T2 construct: expressed in transfected cells; host or cells: CHO cells (Chinese hamster ovary cells, ATCC)
T2 sequence (P11229 1-460): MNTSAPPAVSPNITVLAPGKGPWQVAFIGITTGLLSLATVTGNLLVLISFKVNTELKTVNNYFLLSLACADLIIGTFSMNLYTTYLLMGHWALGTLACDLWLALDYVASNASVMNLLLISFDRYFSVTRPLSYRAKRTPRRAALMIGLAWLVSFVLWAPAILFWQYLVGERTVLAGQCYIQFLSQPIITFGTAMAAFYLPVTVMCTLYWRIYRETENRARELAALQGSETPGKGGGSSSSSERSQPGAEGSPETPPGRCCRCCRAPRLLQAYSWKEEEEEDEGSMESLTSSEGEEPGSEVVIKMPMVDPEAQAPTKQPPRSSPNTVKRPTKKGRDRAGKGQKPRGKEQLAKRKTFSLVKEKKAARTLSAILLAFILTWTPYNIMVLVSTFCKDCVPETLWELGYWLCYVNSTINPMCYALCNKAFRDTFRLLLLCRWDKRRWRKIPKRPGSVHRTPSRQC
Procedure: The compound activity in the present invention (EC50 or IC50) is measured using a 384 plate-based imaging assay that monitors drug induced intracellular Ca^2+ release in whole cells. Activation of hM1 (human Muscarinic receptor subtype 1, gene bank access NM_000738), rM1 (rat Muscarinic receptor subtype 1, gene bank access NM_080773), hM3 (human Muscarinic receptor subtype 3, gene bank access NM_000740NM_000740) and hM5 (human Muscarinic receptor subtype 5, gene bank access NM_0121258), receptors expressed in CHO cells (Chinese hamster ovary cells, ATCC) is quantified in a Molecular Devices FLIPR IITM instrument as an increase in fluorescent signal. Inhibition of hM3 and hM5 by compounds is determined by the decrease in fluorescent signal in response to 2 nM acetylcholine activation.
Prior to experiment, the cell culture medium is removed from the plates by inversion. […] Plates are incubated at 37° C. for 60 minutes prior to start the experiment. The incubation is terminated by washing the cells four times in assay buffer, leaving a residual 25 μl buffer per well. Cell plates are then transferred to the FLIPR, ready for compound additions.
The day of experiment, acetylcholine and compounds are diluted in assay buffer in three-fold concentration range (10 points serial dilution) for addition by FLIPR instrument. For all calcium assays, a baseline reading is taken for 10 seconds followed by the addition of 12.5 μl of compounds, resulting in a total well volume of 37.5 μl. Data is collected every second for 60 pictures and then every 6 seconds for 20 pictures prior to the addition of agonist. For hM3 and hM5, before agonist addition, a second baseline reading is taken for 10 seconds followed by the addition of 12.5 μl of agonist or buffer, producing a final volume of 50 μl. After agonist stimulation, the FLIPR continues to collect data every second for 60 pictures and then every 6 seconds for 20 pictures. The fluorescence emission is read using filter 1 (emission 510-570 nm) by the FLIPR on board CCD camera.
Calcium mobilization output data are calculated as the maximal relative fluorescence unit (RFU) minus the minimal value for both compound and agonist reading frame (except for hM1 and rM1 using only the maximal RFU). Data are analyzed using sigmoidal fits of a non-linear curve-fitting program (XLfit version 4.2.2 Excel add-in version 4.2.2 build 18 math 1Q version 2.1.2 build 18). All pEC50 and pIC50 values are reported as arithmetic means±standard error of mean of ‘n’ independent experiments.

| EC50 [1] [nM] | EC50 [2] [nM] | Compound |
| --- | --- | --- |
| > 12000 | 83 | CCOC(=O)N1CCC(N2CCC(N3C(=O)OC[C@H]4CCCC[C@@H]43)CC2)CC1 [Example 15, Ethyl 4-[4-[(1S,6S)-9-oxo-8-oxa-10-azabicyclo[4.4.0]dec-10-yl]-1-piperidyl]piperidine-1-carboxylate] |
| 380 | 1.6 | CCOC(=O)N1CCC(N2CCC(N3C(=O)NC[C@H]4CCCC[C@@H]43)CC2)CC1 [Example 1, Ethyl 4-[4-[(4aR,8aS)-2-oxo-3,4,4a,5,6,7,8,8a-octahydroquinazolin-1-y]-1-piperidyl]piperidine-1-carboxylate] |
| > 40000 | 46 | CCOC(=O)N1CCC(C)(N2CCC(N3C(=O)CO[C@H]4CCCC[C@@H]43)CC2)C1 (single isomer, unassigned) [Example 19] |
| > 30000 | 170 | Cc1ccccc1C(=O)N1CCC(N2CCC(N3C(=O)CO[C@H]4CCCC[C@@H]43)CC2)CC1 [Example 11, (1S,6S)-10-[1-[1-(2-methylbenzoyl)-4-piperidyl]-4-piperidyl]-7-oxa-10-azabicyclo[4.4.0]decan-9-one] |
| > 30000 | 340 | Cn1cccc1C(=O)N1CCC(N2CCC(N3C(=O)CO[C@H]4CCCC[C@@H]43)CC2)CC1 [Example 12, (1S,6S)-10-[1-[1-(1-methylpyrrole-2-carbonyl)-4-piperidyl]-4-piperidyl]-7-oxa-10-azabicyclo[4.4.0]decan-9-one] |
| > 30000 | 130 | CC(C)OC(=O)N1CCC(N2CCC(N3C(=O)CO[C@@H]4CCCC[C@H]43)CC2)CC1 [Example 14, Propan-2-yl 4-[4-[(1R,6R)-9-oxo-7-oxa-10-azabicyclo[4.4.0]dec-10yl]-1-piperidyl]piperidine-1-carboxylate] |
| > 12000 | 13 | O=C(C1CC1)N1CCC(N2CCC(N3C(=O)NC[C@H]4CCCC[C@@H]43)CC2)CC1 [Example 3, (4aR,8aS)-1-[1-[1-(cyclopropanecarbonyl)-4-piperidyl]-4-piperidyl]-3,4,4a,5,6,7,8,8a-octahydroquinazolin-2-one] |
| > 30000 | 200 | CCOC(=O)N1CC[C@H](N2CCC(N3C(=O)CO[C@H]4CCCC[C@@H]43)CC2)C1 [Example 13, Ethyl (3S)-3-[4-[(1S,6S)-9-oxo-7-oxa-10-azabicyclo[4.4.0]dec-10-yl]-1-piperidyl]pyrrolidine-1-carboxylate] |
| 70 | 4.5 | CCOC(=O)N1CCC(C)(N2CCC(N3C(=O)NC[C@H]4CCCC[C@@H]43)CC2)CC1 [Example 7, Ethyl 4-[4-[(4aR,8aS)-2-oxo-3,4,4a,5,6,7,8,8a-octahydroquinazolin-1-yl]-1-piperidyl]-4-methyl-piperidine-1-carboxylate] |
| 3700 | 23 | CCOC(=O)N1CCC(C)(N2CCC(N3C(=O)CO[C@H]4CCCC[C@@H]43)CC2)C1 (single isomer, unassigned) [Example 18] |
| > 30000 | < 11 | CC(C)OC(=O)N1CCC(C)(N2CCC(N3C(=O)NC[C@H]4CCCC[C@@H]43)CC2)CC1 [Example 8, Propan-2-yl 4-[4-[(4aR,8aS)-2-oxo-3,4,4a,5,6,7,8,8a-octahydroquinazolin-1-yl]-1-piperidyl]-4-methyl-piperidine-1-carboxylate] |
| > 30000 | 25 | Cc1ccccc1C(=O)N1CCC(N2CCC(N3C(=O)NC[C@H]4CCCC[C@@H]43)CC2)CC1 [Example 4, (4aR,8aS)-1-[1-[1-(2-methylbenzoyl)-4-piperidyl]-4-piperidyl]-3,4,4a,5,6,7,8,8a-octahydroquinazolin-2-one] |
| > 30000 | 94 | CC(C)OC(=O)N1CCC(N2CCC(N3C(=O)N(C)C[C@H]4CCCC[C@@H]43)CC2)CC1 [Example 6, Propan-2-yl 4-[4-[(4aR,8aS)-3-methyl-2-oxo-4a,5,6,7,8,8a-hexahydro-4H-quinazolin-1-yl]-1-piperidyl]piperidine-1-carboxylate] |
| > 6600 | 22 | CC(C)OC(=O)N1CCC(N2CCC(N3C(=O)CO[C@H]4CCCC[C@@H]43)CC2)CC1 [Example 10, Propan-2-yl 4-[4-[(1S,6S)-9-oxo-7-oxa-10-azabicyclo[4.4.0]dec-10-yl]-1-piperidyl]piperidine-1-carboxylate] |
| 2500 | 17 | CCOC(=O)N1CCC(N2CCC(N3C(=O)CO[C@H]4CCCC[C@@H]43)CC2)CC1 [Example 9, Ethyl 4-[4-[(1S,6S)-9-oxo-7-oxa-10-azabicyclo[4.4.0]dec-10-yl]-1-piperidyl]piperidine-1-carboxylate] |
| > 1200 | 5.3 | CC(C)OC(=O)N1CCC(N2CCC(N3C(=O)NC[C@H]4CCCC[C@@H]43)CC2)CC1 [Example 2, Propan-2-yl 4-[4-[(4aR,8aS)-2-oxo-3,4,4a,5,6,7,8,8a-octahydroquinazolin-1-yl]-1-piperidyl]piperidine-1-carboxylate] |
